Source: the CheMixHub ionic liquid set

Assay: xn = mol fraction of the nth substance listed
Settings: for electrical conductivity: 101 kPa; for viscosity: 100 kPa

CC(=O)[O-].CCCCCC[n+]1ccccc1 + O
electrical conductivity [S/m]
Settings	x1 = 0.8711	x1 = 0.8907	x1 = 0.9081	x1 = 0.9293	x1 = 0.9699	x2 = 0.007385
293.15 K	0.00457	0.00421	0.00389	0.00337	0.00259	0.00201
298.15 K	0.0076	0.00693	0.00609	0.00551	0.00409	0.00282
303.15 K	0.0127	0.0115	0.0102	0.009	0.00656	0.005
308.15 K	0.0171	0.0156	0.0139	0.0122	0.00887	0.00746
313.15 K	0.0256	0.0229	0.0209	0.0181	0.014	0.0112
318.15 K	0.0371	0.0331	0.03	0.0264	0.019	0.0155
323.15 K	0.0501	0.0451	0.041	0.0365	0.0271	0.0224
328.15 K	0.067	0.0608	0.0551	0.0496	0.0372	0.0318
333.15 K	0.091	0.081	0.0727	0.0639	0.0487	0.0414
338.15 K	0.124	0.111	0.101	0.0894	0.0694	0.0592
343.15 K	0.163	0.148	0.135	0.119	0.0952	0.0819

CC(=O)[O-].CCCCC[n+]1ccccc1 + O
Settings	electrical conductivity [S/m]
293.15 K, x1 = 0.9144	0.00606
293.15 K, x1 = 0.9163	0.006
293.15 K, x1 = 0.9314	0.00537
293.15 K, x1 = 0.948	0.00491
293.15 K, x1 = 0.9673	0.00428
293.15 K, x2 = 0.002318	0.00338
298.15 K, x1 = 0.9163	0.0103
298.15 K, x1 = 0.9314	0.00935
298.15 K, x1 = 0.948	0.00808
298.15 K, x1 = 0.9673	0.00703
298.15 K, x2 = 0.002318	0.00533
303.15 K, x1 = 0.9314	0.0157
303.15 K, x2 = 0.002318	0.00815
308.15 K, x1 = 0.9163	0.025
308.15 K, x1 = 0.9314	0.0221
313.15 K, x1 = 0.9163	0.0356
318.15 K, x1 = 0.9163	0.0509
318.15 K, x1 = 0.948	0.0396
318.15 K, x1 = 0.9673	0.0345
318.15 K, x2 = 0.002318	0.0267
323.15 K, x1 = 0.9163	0.0695
323.15 K, x2 = 0.002318	0.0339
328.15 K, x1 = 0.9314	0.081
333.15 K, x1 = 0.9144	0.13
338.15 K, x1 = 0.9144	0.175
338.15 K, x1 = 0.948	0.13
343.15 K, x1 = 0.9314	0.193

CC(N)C(=O)[O-].CCCC[n+]1ccn(C)c1C + O
viscosity [mPa·s]
Settings	x1 = 0.1003	x1 = 0.3009	x1 = 0.6987	x1 = 1
293.15 K	22.3	–	200	370
313.15 K	–	–	70	–
318.15 K	–	18.9	–	87
